From patent US20210017607A1, “Methods of Predicting Responsiveness to Cancer Therapies” (The University of Chicago, priority 2019, published 2021)

Experiments:
Format in all cases: cell-based, mouse
[1] = test system: cGAS/STING signaling pathway components p-TBK1 and p-IRF3; test: Western blotting of cGAS/STING pathway activation
Procedure: FIGS. 15A-15E. Differential STING pathway activation within B6-Myc (STING^hi) cell lines and BMDMs relative to Myc-CAP (STING^lo) cells. (15A, 15B) The indicated cancer cell lines and BMDMs were treated with DMXAA (mouse STING agonist) for 1 and 24 hours, respectively, and protein extracts were interrogated for cGAS/STING pathway activation with the indicated antibodies by Western blotting. Supernatants were collected from for IFNβ1 ELISA following 36 hours of treatment with DMXAA (15C, 15D). (15E) Syngeneic Myc-CAP (STING^lo) tumors were processed into single cell suspensions and used for phycoerythrin-based sorting of CD45+ cellular fractions. Equal numbers of cells from these fractions were stimulated with DMXAA. Supernatants were collected at 36 hrs for detection of IFNB1 by ELISA; n=3 independent experiments; Significance/p-values were calculated by one-way Anova (for 15C & 15E) or paired t-test (for 15D); TAM=tumor associated macrophage; s.e.=short exposure; l.e.=long exposure.
Western Blot Analysis. RIPA and T-PER buffer (Thero Scientific®), supplemented with protease (Roche®) and HALT phosphatase inhibitor cocktail (Roche®), were used for preparation of lysates from in vitro cell lines and whole tumor chunks, respectively. For western blotting, the following antibodies were used from Cell Signaling Technology®: Polyclonal rabbit anti-mouse-phospho-γH2AX, phospho-AKT, total AKT, cGAS, STING, phospho-IRF3, total IRF3, phospho-TBK1, total TBK1, PTEN, β-actin and GAPDH. Monoclonal anti-mouse PAR antibody was obtained from Trevigen®. Images of scanned blots were processed using ADOBE Photoshop®.

[2] = test system: prostate-specific PTEN^−/−p53^−/− GEMM tumors; test: Ex vivo GEMM tumor suspensions, IFNβ1 ELISA; conditions: DMXAA 50 μg/mL, 36 hours
Procedure: FIG. 39. […] Tumors from prostate-specific PTEN^−/−p53^−/− GEMM tumors were processed into single cell suspensions and treated with indicated drugs (DMXAA at 50 μg/mL, Buparlisib at 1000 nM, Rucaparib at 500 nM). At 36 hours supernatants were collected for ELISA based detection of IFNβ1; n=1 independent experiment.
Ex vivo Assays. Subcutaneous tumors were isolated by gentle mechanical dissociation in the presence of 1×RPMI (supplemented with 10% fetal bovine serum, 1% penicillin-streptomycin and 2% L-glutamine). 1×ACK was used for RBC lysis. Single cell suspensions were washed twice with media, by centrifuging at 500×g for 5 min at 4° C. and quantified using 0.1% […] solution. Cells were seeded at a concentration 0.2-0.5 million cells/mL and treated with indicated drugs singly or in combination for 36 hours. DMXAA (positive control) was used at indicated concentration. Supernatants from treated BMDMs were collected at the end of 36 hours and processed as per ELISA protocol for detection of cytokines/chemokines.

[3] = test system: Myc-CAP-PTEN-deficient cancer cells; test: Exosome dsDNA content by Nanodrop; conditions: rucaparib 36 hours
Procedure: FIGS. 40A and 40B. […] Isogenic PTEN-proficient and CRISPR-CAS9-mediated PTEN-knockout Myc-CAP cells were treated with rucaparib for 36 hours. Exosomes were collected by ultracentrifugation and used for quantification of particle number by Nanosight (40A) and dsDNA content by Nanodrop® (40B). n=2 experiments.
FIGS. 41A and 41B. […] Exosomes were collected by ultracentrifugation and used for quantification of particle number by Nanosight (41A) and dsDNA content by Nanodrop® (41B). n=2 experiments.
Microvesicle Isolation (MVs)/DNA extraction. Cells were treated for 36 hours with the indicated drugs, and supernatants were harvested and then centrifuged at 300×g for 5 minutes at 4° C. to pellet cells, This was followed by additional centrifugation steps at 2,000×g for 10 min at 4° C. to eliminate dead cell debris and at 10,000×g for 30 min in at 4° C. to remove larger vesicles. The supernatant was then collected and subjected to 100,000×g centrifugation in a Type 60 Ti rotor (38000 rpm) for 70 min at 4 ° C. […] The final EV pellet was collected in 1×PBS and used for quantification. […] Equal numbers of EVs were collected from each treatment group and DNA was extracted using Trizol® LS as per protocol (Thermo Fischer Scientific®) and then quantified using Nanodrop®.

PI3K = test: In vitro target inhibition by western blotting (PI3K/AKT)

Cc1ccc2c(=O)c3cccc(CC(=O)O)c3oc2c1C [DMXAA, 5,6-Dimethylxanthenone-4-acetic Acid]
activation of p-TBK1 and p-IRF3 ([1]; B6-Myc (STING^hi) cells): activated | activation of c-GAS/STING signaling pathway ([1]; BMDMs): activated the c-GAS/STING signaling pathway | activation of p-TBK1 and p-IRF3 ([1]; Myc-CAP (STING^lo) cells): not observed | STING activation (IFNβ1 ELISA) [2]: induces STING activation

CNCc1ccc(-c2[nH]c3cc(F)cc4c3c2CCNC4=O)cc1 [rucaparib]
exosomal dsDNA content relative to PTEN-proficient counterparts ([3]; CRISPR-CAS9 PTEN-knockout): significantly reduced dsDNA content | exosomal dsDNA content relative to PTEN-proficient counterparts ([3]; siRNA PTEN-knockdown): significantly reduced dsDNA content

Nc1cc(C(F)(F)F)c(-c2cc(N3CCOCC3)nc(N3CCOCC3)n2)cn1 [buparlisib]
concentration that achieved complete target inhibition in vitro (PI3K; B6-Myc cells (FIG. 17B)): 1 µM | target inhibitory concentration (PI3K; BMDMs (FIG. 30A)): 1 | activation of the PI3K/AKT pathway within BMDMs (PI3K; BMDMs co-cultured with R-MVs, 24 hours): inhibits activation of the PI3K/AKT pathway | complete target inhibition concentration (PI3K; Myc-CAP cells (FIG. 29B)): 1 µM
